Activity calls are given as the source filed them. No cut-off for these calls is given here.
Experiments:
[1] = biological target: Sodium-dependent serotonin transporter (Homo sapiens, UniProt P31645); experiment: Inhibition of human SERT expressed in HEK293-MSR cells by 5-HT uptake assay; type: cell-based
DG-75 [2] = experiment: Induction of apoptosis in human DG75 cells assessed as cell death at 2.5 uM in presence of NAC ROS inhibitor; type: functional, cell-based
HeLa [3] = experiment: Induction of apoptosis in human HeLa cells assessed as cell death at 2.5 uM in presence of NAC ROS inhibitor; type: functional, cell-based
MUTU-I [4] = experiment: Induction of apoptosis in human MUTU-I cells assessed as cell death at 2.5 uM in presence of NAC ROS inhibitor; type: functional, cell-based
DG-75 [5] = experiment: Induction of apoptosis in human DG75 cells assessed as increase in caspase 3/7 activation by luminescence plate reader; type: functional, cell-based
DG-75 [6] = experiment: Induction of apoptosis in human DG75 cells assessed as PARP cleavage by Western blotting analysis; type: functional, cell-based
HeLa [7] = experiment: Induction of apoptosis in human HeLa cells assessed as increase in intracellular cysteine proteases; type: functional, cell-based
MUTU-I [8] = experiment: Induction of apoptosis in human MUTU-I cells assessed as increase in intracellular cysteine proteases; type: functional, cell-based
HeLa [9] = experiment: Induction of apoptosis in human HeLa cells assessed as increase in caspase 3/7 activation by luminescence plate reader; type: functional, cell-based
MUTU-I [10] = experiment: Induction of apoptosis in human MUTU-I cells assessed as increase in caspase 3/7 activation by luminescence plate reader; type: functional, cell-based
HeLa [11] = experiment: Induction of apoptosis in human HeLa cells assessed as PARP cleavage by Western blotting analysis; type: functional, cell-based
MUTU-I [12] = experiment: Induction of apoptosis in human MUTU-I cells assessed as PARP cleavage by Western blotting analysis; type: functional, cell-based
HeLa [13] = experiment: Induction of apoptosis in human HeLa cells assessed as cell death at 2.5 uM after 8 hrs by flow cytometry; type: functional, cell-based
DG-75 [14] = experiment: Induction of apoptosis in human DG75 cells assessed as cell death at 2.5 uM measured after 24 hrs by flow cytometry; type: functional, cell-based
MUTU-I [15] = experiment: Induction of apoptosis in human MUTU-I cells assessed as cell death at 2.5 uM after 2 hrs by flow cytometry; type: functional, cell-based
HeLa [16] = experiment: Induction of apoptosis in human HeLa cells assessed as decrease in cells at G2/M phase measured at 2.5 uM after 24 hrs by propidium iodide assay; type: functional, cell-based
DG-75 [17] = experiment: Induction of apoptosis in human DG75 cells assessed as decrease in cells at G2/M phase measured at 2.5 uM after 24 hrs by propidium iodide assay; type: functional, cell-based
MUTU-I [18] = experiment: Induction of apoptosis in human MUTU-I cells assessed as decrease in cells at G2/M phase measured at 2.5 uM after 24 hrs by propidium iodide assay; type: functional, cell-based
HeLa [19] = experiment: Induction of apoptosis in human HeLa cells assessed as cell death at 2.5 uM after 24 hrs by flow cytometry (reference value: 7 +/- 1.9%); type: functional
DG-75 [20] = experiment: Induction of apoptosis in human DG75 cells assessed as cell death at 2.5 uM after 24 hrs by flow cytometry (reference value: 0.8 +/- 0.25%); type: functional
[21] = (§1) Induction of apoptosis in human MUTU-I cells assessed as cell death at 2.5 uM after 24 hrs by flow cytometry (reference value: 3.7 +/- 0.4%); type: functional
HeLa [22] = experiment: Reduction in cell viability of human HeLa cells after 24 hrs by Alamar blue viability assay; type: functional, cell-based
DG-75 [23] = experiment: Reduction in cell viability of human DG75 cells after 24 hrs by Alamar blue viability assay; type: functional, cell-based; conditions: DG-75, 24 h
[24] = Reduction in cell viability of human MUTU-I cells after 24 hrs by Alamar blue viability assay; type: functional, cell-based
DG-75 [25] = experiment: Induction of apoptosis in human DG75 cells assessed as increase in cells at G2/M phase measured at 2.5 uM after 24 hrs by propidium iodide assay; type: functional, cell-based
MUTU-I [26] = experiment: as §1; type: functional

Sodium-dependent serotonin transporter, sequence (P31645 whole entry): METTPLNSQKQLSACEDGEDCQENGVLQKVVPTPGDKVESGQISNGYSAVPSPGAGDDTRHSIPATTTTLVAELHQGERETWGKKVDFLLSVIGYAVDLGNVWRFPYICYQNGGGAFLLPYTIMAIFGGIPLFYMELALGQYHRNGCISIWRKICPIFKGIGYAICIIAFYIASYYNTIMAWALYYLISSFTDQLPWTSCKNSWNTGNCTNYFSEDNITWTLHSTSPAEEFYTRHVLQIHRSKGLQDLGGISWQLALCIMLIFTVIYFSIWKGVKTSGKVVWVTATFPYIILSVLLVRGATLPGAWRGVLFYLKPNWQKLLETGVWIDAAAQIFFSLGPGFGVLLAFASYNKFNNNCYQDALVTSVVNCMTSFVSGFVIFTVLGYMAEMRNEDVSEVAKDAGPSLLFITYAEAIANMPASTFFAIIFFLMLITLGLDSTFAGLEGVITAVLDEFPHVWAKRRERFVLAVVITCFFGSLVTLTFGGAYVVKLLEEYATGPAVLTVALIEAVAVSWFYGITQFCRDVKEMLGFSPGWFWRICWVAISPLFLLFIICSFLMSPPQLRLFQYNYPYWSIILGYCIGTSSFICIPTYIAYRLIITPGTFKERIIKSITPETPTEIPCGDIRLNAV

Row | Compound | IC50 [1] [µM] | Activity (DG-75 [2]) | Activity (HeLa [3]) | Activity (MUTU-I [4]) | Activity (DG-75 [5]) | Activity (DG-75 [6]) | Activity (HeLa [7]) | Activity (MUTU-I [8]) | Activity (HeLa [9]) | Activity (MUTU-I [10]) | Activity (HeLa [11]) | Activity (MUTU-I [12]) | Activity (HeLa [16]) | Activity (DG-75 [17]) | Activity (MUTU-I [18]) | Activity (HeLa [19]) | Activity (DG-75 [20]) | IC50 (HeLa [22]) [µM] | IC50 (DG-75 [23]) [µM] | IC50 [24] [µM] | also measured
1 | CN(CCCN1c2ccccc2CCc2ccccc21)CCOCCN(C)CCCN1c2ccccc2CCc2ccccc21 | 6 | Active | Active | Active | inactive | inactive | Active | Active | Active | Active | Active | Active | Active | Active | Active | 61.7% | 22.8% | 1.74 | 1.89 | 1.05 | Activity (HeLa [13]): Active; Activity (DG-75 [14]): Active; Activity (MUTU-I [15]): Active; Activity [21]: 66.6%
2 | CNCCCN1c2ccccc2CCc2ccccc21 [DESIPRAMINE] |  |  |  |  |  |  |  |  |  |  |  |  | inactive | inactive | inactive |  |  | 17.8 | 39.8 | 7.94 | 
3 | CN(CCCN1c2ccccc2CCc2ccccc21)C(=O)COCCOCC(=O)N(C)CCCN1c2ccccc2CCc2ccccc21 | 46 |  |  |  |  |  |  |  |  |  |  |  | inactive | inactive | inactive |  |  | 22.9 | 18.6 | 5.75 | 
4 | CC(=O)O[C@H]1C(=O)[C@@]2(C)[C@H]([C@H](OC(=O)c3ccccc3)[C@]3(O)C[C@H](OC(=O)[C@H](O)[C@@H](NC(=O)c4ccccc4)c4ccccc4)C(C)=C1C3(C)C)[C@]1(OC(C)=O)CO[C@@H]1C[C@@H]2O |  |  |  |  |  |  |  |  |  |  |  |  |  |  |  | Active | inactive |  |  |  | Activity (DG-75 [25]): Active; Activity (MUTU-I [26]): Active
5 | CN(CCCN1c2ccccc2CCc2ccccc21)CCOCCOCCN(C)CCCN1c2ccccc2CCc2ccccc21 | 4.8 | Active | Active | Active | inactive | inactive | Active | Active | Active | Active | Active | Active | Active | Active | Active | 44.4% | 40.9% | 1.41 | 1.51 | 0.62 | Activity (HeLa [13]): Active; Activity (DG-75 [14]): Active; Activity (MUTU-I [15]): Active; Activity [21]: 56.2%
6 | CN(C)CCCN1c2ccccc2CCc2ccccc21 [IMIPRAMINE] |  |  |  |  |  |  |  |  |  |  |  |  | inactive | inactive | inactive |  |  | 40.7 | > 50 | 14.1 | 
7 | CN(CCCN1c2ccccc2CCc2ccccc21)CCOCCOCCOCCN(C)CCCN1c2ccccc2CCc2ccccc21 | 5.5 | Active | Active | Active | inactive | inactive | Active | Active | Active | Active | Active | Active | Active | Active | Active | 46% | 54.6% | 1.58 | 1.91 | 1.15 | Activity (HeLa [13]): Active; Activity (DG-75 [14]): Active; Activity (MUTU-I [15]): Active; Activity [21]: 46.3%

From ChEMBL document CHEMBL2331299, “Basic N-interlinked imipramines show apoptotic activity against malignant cells including Burkitt's lymphoma” (Bioorg Med Chem Lett, 2013)
